# From PMC9583845, “Characterization of the chicken melanocortin 5 receptor and its potential role in regulating hepatic glucolipid metabolism” (Frontiers in Physiology, 2022)
# Key:
# [1] = system: primary chicken hepatocytes; assay: Glucose production from primary cultured chicken hepatocytes; type: cell-based; details: for glucose production (in words): primary chicken hepatocytes, 100 nM for 30 or 60 min, or 0.1–100 nM for 60 min, gluconeogenic substrates 20 mM lactate, 2 mM pyruvate, four independent experiments, Figures 7A,B
# Experimental: To evaluate the effect of ACTH1-39 on chicken liver, the chicken hepatocytes were prepared and maintained as a monolayer culture. Briefly, one-month-old male chicken hepatocytes were isolated by perfusion of a liver with Ca^2+-free KRB buffer to remove blood cells, and being digested with 0.25% collagenase-I for 10 min. Hepatocytes were obtained following filtering and washing using M199 medium. Then the hepatocytes were plated in a Corning CellBIND 48-well microplate (Corning, NY, cat. no.3338) with M199 medium containing 100 U/ml penicillin and […] streptomycin (Gibco), 5 μg/ml bovine insulin (Sigma), and 5% FBS at 37°C in a 5% CO2 atmosphere. To adhere to the wall, the cells were incubated on the 48-well plate for 4 h.
# Glucose production from primary cultured chicken hepatocytes was measured as previously described ([Collins et al., 2006]). Briefly, cells were washed three times with warm phosphate-buffered saline (PBS) to remove glucose, followed by treatment with 100 nM (or different concentration gradients) chicken ATCH1-39 for 30 min or 60 min in glucose-free medium containing gluconeogenic substrates (20 mM sodium lactate and 2 mM sodium pyruvate). Glucose concentration was determined with a glucose assay kit (Applygen, Beijing, China, catalog no. E1011). Briefly, the 5 µl medium was added into 195 µl reagent and incubated for 20 min at 37°C. Absorbance in 550 nm was measured in a standard glucose solution.
# [2] = system: CREB phosphorylation (cMC5R); assay: CREB phosphorylation, western blot, CHO cells expressing cMC5R; type: cell-based, chicken; details: 10 nM, 10 min; p-CREB normalized by total CREB; three independent experiments; Figure 2D
# Experimental: To investigate whether the activation of cMC5R can enhance CREB phosphorylation, 100 ng of cMC5R expression plasmid, or an empty pcDNA3.1 (+) vector, was transfected into CHO cells cultured in a 24-well plate (Nunc) using jetPRIME transfection reagent (Polyplus Transfection). After 24 h transfection, ACTH (10 nM) or α-MSH (10 nM) was added to treat the cells for 10 min. Then the whole-cell lysates were used to examine the level of phosphorylated CREB using western blot. The level of total CREB protein was also examined and used as internal controls in each experiment. The phosphorylated CREB (p-CREB) and total CREB levels were quantified by densitometric analysis with ImageJ software. Relative optical densities of p-CREB normalized by CREB levels compared to the densities in the absence of ACTH (or α-MSH) are shown as relative p-CREB/CREB expression (fold changes).
# chicken MC5R + MRAP2 = chicken MC5R + MRAP2 (Gallus gallus, UniProt O73671); assay: pGL3-CRE-luciferase reporter assay, CHO cells co-expressing MC5R and cMRAP2; type: cell-based; details: for effect of MRAP2 co-expression on sensitivity of MC5R: vs MC5R expressed alone
# Chain of chicken MC5R + MRAP2 (O73671 1-325): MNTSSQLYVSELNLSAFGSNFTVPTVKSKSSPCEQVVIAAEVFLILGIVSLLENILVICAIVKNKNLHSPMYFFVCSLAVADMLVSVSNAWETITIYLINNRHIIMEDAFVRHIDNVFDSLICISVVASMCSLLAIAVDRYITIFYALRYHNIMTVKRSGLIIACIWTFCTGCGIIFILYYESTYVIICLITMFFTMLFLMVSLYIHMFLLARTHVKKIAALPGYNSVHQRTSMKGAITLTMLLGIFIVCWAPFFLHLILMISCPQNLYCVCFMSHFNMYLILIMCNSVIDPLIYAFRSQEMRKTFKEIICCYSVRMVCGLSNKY
# Chain of chicken MC5R + MRAP2 (A0A140B2F4 1-206 partner): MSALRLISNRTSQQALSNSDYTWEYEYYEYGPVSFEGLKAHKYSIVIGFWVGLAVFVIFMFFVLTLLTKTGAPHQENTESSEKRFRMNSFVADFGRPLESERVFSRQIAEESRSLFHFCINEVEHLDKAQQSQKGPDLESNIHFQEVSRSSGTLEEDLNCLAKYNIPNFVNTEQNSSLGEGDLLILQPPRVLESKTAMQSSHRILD
# Experimental: The expression plasmids encoding MC5R, MRAP1 and MRAP2 were established by cloning their entire open reading frame (ORF) into the pcDNA3.1 (+) expression vector (Invitrogen).
# The cells were then transfected with a mixture containing 700 ng pGL3-CRE-Luciferase reporter construct, 200 ng of receptor expression plasmid (or empty pcDNA3.1 vector as a negative control), 20 ng of pRL-TK construct (containing a Renilla luciferase gene, used as an internal control), and 2 μl jetPRIME transfection reagent (Polyplus Transfection, Illkirch, France) in 200 μL buffer. […] After removal of the medium from the 96-well plate, the cells were treated with 100 μl ligand-containing medium (or ligand-free medium) for 6 h. Finally, CHO cells were lysed with 1 × passive lysis buffer for luciferase assay (Promega) and the luciferase activity of the cell lysate was measured by a Multimode Microplate Reader (TriStar LB941, EG&G Berthold, Germany) according to the manufacturer’s instruction.
# All statistical analysis was performed using GraphPad Prism 9 (Graph Pad Software Inc., San Diego, CA). The dose-response curves were constructed using nonlinear regression models. Student’s test was used to compare two groups, for more than two groups one-way ANOVA was performed followed by Dunnett’s test. To validate our results, all in-vitro experiments were repeated three times, and representative data are reported.
substance,measurement,setting,value
H-SYSMEHFRWGKPVGRKRRPIKVYPNGVDEESAESYPMEF-OH [ACTH1-39],time from which glucose production significantly increased,"[1]; 100 nM ACTH, 30 and 60 min, Figure 7A",≥ 0.5 h
same,dose from which glucose production significantly increased,"[1]; 0.1–100 nM ACTH, 60 min, Figure 7B",≥ 1 nM
same,glucose production (in words),[1],enhanced glucose production
same,glucose production (in words),[1]; listed as ACTH,induction of gluconeogenesis
same,glucose production (in words),[1]; listed as cACTH1-39,significantly increased the level of glucose production
same,CREB phosphorylation,[2],significantly increased
same,EC50,"chicken MC5R + MRAP2; Table 1 / Figure 3, co-expressed with cMRAP2, 6 h, pGL3-CRE-luciferase, mean ± SEM of at least three independent experiments (figure: four replicates), ^a: significantly different from the parameter of MC5R, p < 0.01",3.19 ± 1.09 nM
same,effect of MRAP2 co-expression on sensitivity of MC5R,chicken MC5R + MRAP2; α-MSH p < 0.01,did not affect the sensitivity of cMC5R to ACTH1-39
same,effect of MRAP2 co-expression on sensitivity of MC5R,"chicken MC5R + MRAP2; α-MSH p < 0.01, listed as ACTH",no effect on the sensitivity of chicken MC5R for ACTH
